The values that follow come from US20250312352A1, “GLP-1R MODULATING COMPOUNDS” (Gilead Sciences, Inc., priority 2021, published 2025).

pEC50: −log10 of the molar value.

The assay addresses T1, GLP-1R (Homo sapiens, UniProt P43220).
T1 construct: host or cells: CHO cells
Briefly: GLP-1R activation cAMP assay (Assay 1 or Assay 2). It is filed as cell-based. Conditions: cAMP increase in CHO cells stably expressing GLP-1R; compounds run on one of the two cAMP assays. A digest of the protocol:
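EC50 values come from a sigmoidal fit of HTRF-detected cAMP rise versus log agonist concentration. GLP-1R-expressing CHO cells, equilibrated 1 h at 37 °C in HBSS with HEPES and BSA, received a 10-point compound dose series for 30 min before detection.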
(Cyclic AMP is a second messenger, typically raised through Gs and lowered through Gi signalling.)

T1 sequence (P43220 24-463): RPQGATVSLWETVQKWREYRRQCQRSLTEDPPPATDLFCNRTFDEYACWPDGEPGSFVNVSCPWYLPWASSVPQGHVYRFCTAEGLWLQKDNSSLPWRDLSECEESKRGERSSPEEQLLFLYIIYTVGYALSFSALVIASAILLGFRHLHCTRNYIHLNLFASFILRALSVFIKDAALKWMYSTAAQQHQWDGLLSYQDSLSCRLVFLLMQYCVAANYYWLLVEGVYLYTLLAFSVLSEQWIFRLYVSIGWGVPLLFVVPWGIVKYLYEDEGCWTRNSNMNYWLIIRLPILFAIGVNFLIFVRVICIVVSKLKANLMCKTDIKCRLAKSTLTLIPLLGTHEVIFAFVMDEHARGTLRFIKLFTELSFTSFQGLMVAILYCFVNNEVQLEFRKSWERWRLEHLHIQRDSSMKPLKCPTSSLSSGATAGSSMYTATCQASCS

In turn, `Cn1nccc1-c1cnc(COc2cccc(-c3cc(F)c(Cc4nc5ccc(C(=O)O)cc5n4C[C@@H]4CCO4)cc3F)n2)s1` [Example 94, (S)-2-(2,5-difluoro-4-(6-((5-(1-methyl-1H-pyrazol-5-yl)thiazol-2-yl)methoxy)pyridin-2-yl)benzyl)-1-(oxetan-2-ylmethyl)-1H-benzo[d]imidazole-6-carboxylic acid] had a negative-log EC50 (pEC50) of 8.54.

Take `O=C(O)c1ccc2nc(Cc3cc(F)c(-c4cccc(OCc5ncc(-c6cnsc6)s5)n4)cc3F)n(C[C@@H]3CCO3)c2c1` [Example 95, (S)-2-(2,5-difluoro-4-(6-((5-(isothiazol-4-yl)thiazol-2-yl)methoxy)pyridin-2-yl)benzyl)-1-(oxetan-2-ylmethyl)-1H-benzo[d]imidazole-6-carboxylic acid]: the pEC50 is 10.10.

In the case of `O=C(O)c1ccc2nc(Cc3cc(F)c(-c4cccc(OCc5nnc(-c6cnn(C7CC7)c6)s5)n4)cc3F)n(C[C@@H]3CCO3)c2c1` [Example 96, (S)-2-(4-(6-((5-(1-cyclopropyl-1H-pyrazol-4-yl)-1,3,4-thiadiazol-2-yl)methoxy)pyridin-2-yl)-2,5-difluorobenzyl)-1-(oxetan-2-ylmethyl)-1H-benzo[d]imidazole-6-carboxylic acid], the negative logarithm of the EC50 (pEC50) is 9.89.

Regarding `Cn1cc(-c2cnc(COc3cccc(-c4cc(F)c(Cc5nc6ccc(C(=O)O)cc6n5[C@H]5COCC5(C)C)cc4F)n3)s2)cn1` [Example 97, (R)-2-(2,5-difluoro-4-(6-((5-(1-methyl-1H-pyrazol-4-yl)thiazol-2-yl)methoxy)pyridin-2-yl)benzyl)-1-(4,4-dimethyltetrahydrofuran-3-yl)-1H-benzo[d]imidazole-6-carboxylic acid], the negative-log EC50 (pEC50) was 9.96.

Compound `Cn1cc(-c2cnc(COc3nc(-c4cc(F)c(Cc5nc6c(F)cc(C(=O)O)cc6n5C[C@@H]5CCO5)cc4F)ccc3F)s2)cn1` [Example 98, (S)-2-(2,5-difluoro-4-(5-fluoro-6-((5-(1-methyl-1H-pyrazol-4-yl)thiazol-2-yl)methoxy)pyridin-2-yl)benzyl)-4-fluoro-1-(oxetan-2-ylmethyl)-1H-benzo[d]imidazole-6-carboxylic acid] had a pEC50 of 10.52.

Regarding `Cn1cc(-c2cnc(COc3nc(-c4cc(F)c(Cc5nc6ccc(C(=O)O)cc6n5C[C@@H]5CCO5)cc4F)ccc3F)s2)cn1` [Example 99, (S)-2-(2,5-difluoro-4-(5-fluoro-6-((5-(1-methyl-1H-pyrazol-4-yl)thiazol-2-yl)methoxy)pyridin-2-yl)benzyl)-1-(oxetan-2-ylmethyl)-1H-benzo[d]imidazole-6-carboxylic acid], the pEC50 was 9.85.

Regarding `O=C(O)c1ccc2nc(Cc3cc(F)c(-c4cccc(OCc5ncc(-c6ccns6)s5)n4)cc3F)n(C[C@@H]3CCO3)c2c1` [Example 100, (S)-2-(2,5-difluoro-4-(6-((5-(isothiazol-5-yl)thiazol-2-yl)methoxy)pyridin-2-yl)benzyl)-1-(oxetan-2-ylmethyl)-1H-benzo[d]imidazole-6-carboxylic acid], the pEC50 was 10.05.

For the compound `O=C(O)c1ccc2nc(Cc3cc(F)c(-c4cccc(OCc5ncc(-c6cncs6)s5)n4)cc3F)n(C[C@@H]3CCO3)c2c1` [Example 101, (S)-2-(4-(6-([5,5′-bithiazol]-2-ylmethoxy)pyridin-2-yl)-2,5-difluorobenzyl)-1-(oxetan-2-ylmethyl)-1H-benzo[d]imidazole-6-carboxylic acid], the pEC50 was 9.85.

As to `Cn1cncc1-c1cnc(COc2cccc(-c3cc(F)c(Cc4nc5ccc(C(=O)O)cc5n4C[C@@H]4CCO4)cc3F)n2)s1` [Example 102, (S)-2-(2,5-difluoro-4-(6-((5-(1-methyl-1H-imidazol-5-yl)thiazol-2-yl)methoxy)pyridin-2-yl)benzyl)-1-(oxetan-2-ylmethyl)-1H-benzo[d]imidazole-6-carboxylic acid], the negative-log EC50 (pEC50) is 7.87.

The compound `Cn1ccc(-c2cnc(COc3cccc(-c4cc(F)c(Cc5nc6ccc(C(=O)O)cc6n5C[C@@H]5CCO5)cc4F)n3)s2)n1` [Example 103, (S)-2-(2,5-difluoro-4-(6-((5-(1-methyl-1H-pyrazol-3-yl)thiazol-2-yl)methoxy)pyridin-2-yl)benzyl)-1-(oxetan-2-ylmethyl)-1H-benzo[d]imidazole-6-carboxylic acid] showed a pEC50 of 9.64.

As to `Cc1nc(COc2cccc(-c3cc(F)c(Cc4nc5ccc(C(=O)O)cc5n4C[C@H]4CCO4)cc3F)n2)sc1-c1cnn(C)c1` [Example 104, (R)-2-(2,5-difluoro-4-(6-((4-methyl-5-(1-methyl-1H-pyrazol-4-yl)thiazol-2-yl)methoxy)pyridin-2-yl)benzyl)-1-(oxetan-2-ylmethyl)-1H-benzo[d]imidazole-6-carboxylic acid], the pEC50 was 10.15.

Regarding `O=C(O)c1ccc2nc(Cc3cc(F)c(-c4cccc(OCc5ncc(-c6cncnc6)s5)n4)cc3F)n(C[C@@H]3CCO3)c2c1` [Example 105, (S)-2-(2,5-difluoro-4-(6-((5-(pyrimidin-5-yl)thiazol-2-yl)methoxy)pyridin-2-yl)benzyl)-1-(oxetan-2-ylmethyl)-1H-benzo[d]imidazole-6-carboxylic acid], the negative logarithm of the EC50 (pEC50) is 9.85.

With `O=C(O)c1ccc2nc(Cc3cc(F)c(-c4cccc(OCc5ncc(-c6cnccn6)s5)n4)cc3F)n(C[C@@H]3CCO3)c2c1` [Example 106, (S)-2-(2,5-difluoro-4-(6-((5-(pyrazin-2-yl)thiazol-2-yl)methoxy)pyridin-2-yl)benzyl)-1-(oxetan-2-ylmethyl)-1H-benzo[d]imidazole-6-carboxylic acid], the negative logarithm of the EC50 (pEC50) is 9.85.

Compound `O=C(O)c1ccc2nc(Cc3cc(F)c(-c4cccc(OCc5ncc(-c6ccccn6)s5)n4)cc3F)n(C[C@@H]3CCO3)c2c1` [Example 107, (S)-2-(2,5-difluoro-4-(6-((5-(pyridin-2-yl)thiazol-2-yl)methoxy)pyridin-2-yl)benzyl)-1-(oxetan-2-ylmethyl)-1H-benzo[d]imidazole-6-carboxylic acid] gave a pEC50 of 9.51.

Compound `O=C(O)c1ccc2nc(Cc3cc(F)c(-c4cccc(OCc5ncc(-c6cccnc6)s5)n4)cc3F)n(C[C@@H]3CCO3)c2c1` [Example 108, (S)-2-(2,5-difluoro-4-(6-((5-(pyridin-3-yl)thiazol-2-yl)methoxy)pyridin-2-yl)benzyl)-1-(oxetan-2-ylmethyl)-1H-benzo[d]imidazole-6-carboxylic acid] showed a pEC50 of 9.74.

In the case of `Cn1cc(-c2cc(COc3cccc(-c4cc(F)c(Cc5nc6ccc(C(=O)O)cc6n5C[C@@H]5CCO5)cc4F)n3)nn2C)cn1` [Example 109, (S)-2-(4-(6-((1′,2-dimethyl-1′H,2H-[3,4′-bipyrazol]-5-yl)methoxy)pyridin-2-yl)-2,5-difluorobenzyl)-1-(oxetan-2-ylmethyl)-1H-benzo[d]imidazole-6-carboxylic acid], the negative-log EC50 (pEC50) is 9.21.

In turn, `Cn1nc(COc2cccc(-c3cc(F)c(Cc4nc5ccc(C(=O)O)cc5n4C[C@@H]4CCO4)cc3F)n2)cc1-c1cnn(C(F)F)c1` [Example 110, (S)-2-(4-(6-((1′-(difluoromethyl)-2-methyl-1′H,2H-[3,4′-bipyrazol]-5-yl)methoxy)pyridin-2-yl)-2,5-difluorobenzyl)-1-(oxetan-2-ylmethyl)-1H-benzo[d]imidazole-6-carboxylic acid] gave a pEC50 of 9.02.

In the case of `Cn1cc(C#Cc2cnc(COc3cccc(-c4cc(F)c(Cc5nc6c(F)cc(C(=O)O)cc6n5C[C@@H]5CCO5)cc4F)n3)s2)cn1` [Example 111, 2-[[2,5-difluoro-4-[6-[[5-[2-(1-methylpyrazol-4-yl)ethynyl]thiazol-2-yl]methoxy]-2-pyridyl]phenyl]methyl]-7-fluoro-3-[[(2S)-oxetan-2-yl]methyl]benzimidazole-5-carboxylic acid], the pEC50 is 10.30.

`Cn1cc(C#Cc2ccc(COc3cccc(-c4cc(F)c(Cc5nc6ccc(C(=O)O)cc6n5C[C@@H]5CCO5)cc4F)n3)s2)cn1` [Example 112, (S)-2-(2,5-difluoro-4-(6-((5-((1-methyl-1H-pyrazol-4-yl)ethynyl)thiophen-2-yl)methoxy)pyridin-2-yl)benzyl)-1-(oxetan-2-ylmethyl)-1H-benzo[d]imidazole-6-carboxylic acid]: the negative-log EC50 (pEC50) was 9.89.

Compound `CC1(C#Cc2ccc(COc3cccc(-c4cc(F)c(Cc5nc6ccc(C(=O)O)cc6n5C[C@@H]5CCO5)cc4F)n3)s2)COC1` [Example 113, (S)-2-(2,5-difluoro-4-(6-((5-((3-methyloxetan-3-yl)ethynyl)thiophen-2-yl)methoxy)pyridin-2-yl)benzyl)-1-(oxetan-2-ylmethyl)-1H-benzo[d]imidazole-6-carboxylic acid] showed a pEC50 of 9.80.

Regarding `Cn1cc(C#Cc2cnc(COc3cccc(-c4cc(F)c(Cc5nc6ccc(C(=O)O)cc6n5C[C@@H]5CCO5)cc4F)n3)s2)cn1` [Example 114, (S)-2-(2,5-difluoro-4-(6-((5-((1-methyl-1H-pyrazol-4-yl)ethynyl)thiazol-2-yl)methoxy)pyridin-2-yl)benzyl)-1-(oxetan-2-ylmethyl)-1H-benzo[d]imidazole-6-carboxylic acid], the negative-log EC50 (pEC50) was 9.96.

Regarding `CC1(C#Cc2cnc(COc3cccc(-c4cc(F)c(Cc5nc6ccc(C(=O)O)cc6n5C[C@@H]5CCO5)cc4F)n3)s2)COC1` [Example 115, (S)-2-(2,5-difluoro-4-(6-((5-((3-methyloxetan-3-yl)ethynyl)thiazol-2-yl)methoxy)pyridin-2-yl)benzyl)-1-(oxetan-2-ylmethyl)-1H-benzo[d]imidazole-6-carboxylic acid], the pEC50 was 10.15.

Consider `O=C(O)c1ccc2nc(Cc3cc(F)c(-c4cccc(OCc5ncc(C#Cc6cncs6)s5)n4)cc3F)n(C[C@@H]3CCO3)c2c1` [Example 116, (S)-2-(2,5-difluoro-4-(6-((5-(thiazol-5-ylethynyl)thiazol-2-yl)methoxy)pyridin-2-yl)benzyl)-1-(oxetan-2-ylmethyl)-1H-benzo[d]imidazole-6-carboxylic acid], for which the pEC50 was 9.82.

By pEC50 is commonly meant the EC50 on a negative log10 scale, so that one unit is a factor of ten. A lower pEC50 goes with a high EC50.
